In ChEMBL document CHEMBL1131949, “Stereoselective synthesis and receptor activity of conformationally defined retinoid X receptor selective ligands” (Bioorg Med Chem Lett, 1999):
pKd: −log10 of the molar value.

Legend:
[1] = target: T1, Retinoic acid receptor RXR-gamma (Homo sapiens, UniProt P48443); assay: Inhibition of [3H]-9-cis RA binding to Retinoid X receptor RXR gamma
T1 sequence (P48443 whole entry): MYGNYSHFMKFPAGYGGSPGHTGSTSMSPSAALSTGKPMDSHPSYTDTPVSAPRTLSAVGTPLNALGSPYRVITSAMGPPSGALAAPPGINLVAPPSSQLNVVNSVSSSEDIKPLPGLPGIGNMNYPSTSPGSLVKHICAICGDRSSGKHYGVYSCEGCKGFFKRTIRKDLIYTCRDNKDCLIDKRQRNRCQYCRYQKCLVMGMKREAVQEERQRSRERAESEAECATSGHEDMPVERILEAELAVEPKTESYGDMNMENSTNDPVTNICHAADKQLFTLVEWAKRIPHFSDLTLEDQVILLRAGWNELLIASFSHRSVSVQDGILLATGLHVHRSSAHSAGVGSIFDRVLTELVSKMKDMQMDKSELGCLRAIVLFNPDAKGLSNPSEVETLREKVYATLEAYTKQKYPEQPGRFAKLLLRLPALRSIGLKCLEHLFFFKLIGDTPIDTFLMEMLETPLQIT

[2] = target: T2, Retinoic acid receptor RXR-beta (Homo sapiens, UniProt P28702); assay: Inhibition of [3H]-9-cis RA binding to Retinoid X receptor RXR beta
T2 sequence (P28702 whole entry): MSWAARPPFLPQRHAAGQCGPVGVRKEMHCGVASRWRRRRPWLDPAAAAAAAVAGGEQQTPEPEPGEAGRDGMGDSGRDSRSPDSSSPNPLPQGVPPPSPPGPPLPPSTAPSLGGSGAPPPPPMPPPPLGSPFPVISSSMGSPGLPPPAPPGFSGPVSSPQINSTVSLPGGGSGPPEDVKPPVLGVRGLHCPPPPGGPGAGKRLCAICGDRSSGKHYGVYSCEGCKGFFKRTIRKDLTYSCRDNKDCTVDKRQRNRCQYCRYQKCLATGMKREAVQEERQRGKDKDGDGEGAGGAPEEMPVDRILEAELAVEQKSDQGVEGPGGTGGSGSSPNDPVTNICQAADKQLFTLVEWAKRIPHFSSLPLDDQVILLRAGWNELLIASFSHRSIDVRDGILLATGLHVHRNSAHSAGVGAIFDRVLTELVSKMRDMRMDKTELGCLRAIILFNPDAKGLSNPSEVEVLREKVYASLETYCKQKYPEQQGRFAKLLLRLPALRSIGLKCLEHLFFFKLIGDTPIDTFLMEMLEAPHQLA

Compound | pKd [1] | pKd [2]
CC1=C(/C=C/c2ccccc2/C=C/C(C)=C/C(=O)O)C(C)(C)CCC1 | 7.46 | 7.28
CC1=C(/C=C/c2occc2/C=C/C(C)=C/C(=O)O)C(C)(C)CCC1 | 7.85 | 7.82
